Measurements published in patent US10072026B2, “Crystalline form of 3-((1R,3s,5S)-3-((7-((5-methyl-1H-pyrazol-3-yl)amino)-1,6-naphthyridin-5-yl)amino)-8-azabicyclo[3.2.1]octan-8-yl)propanenitrile” (priority 2015, dated 2018).
Where two headings read alike, the source gives them in different places.

Tests used:
[1] = target: JAK1 (Homo sapiens (Human), UniProt P23458); assay: LanthaScreen JAK biochemical assay (JAK1)
[2] = system: oxazolone-induced colitis; assay: Mouse model of oxazolone-induced colitis; assay type: in vivo, BALB/C mice; conditions: mouse, PO, 1, 3, and/or 10 mg/kg BID
Protocol: Assay 7: Mouse Model of Oxazalone-Induced Colitis
Oxazolone-induced colitis is an experimental model that has a histological resemblance to human ulcerative colitis (Heller et al. Immunology, 2002, 17, 629-638). Adult BALB/C mice from Harlan were used in the assay. On day 1, animals were lightly anesthetized with isoflurane and the hairs between the shoulder were carefully removed before oxazolone (4%, 150 μL, 4:1 acetone:olive oil formulation) or vehicle solution was slowly applied for skin sensitization. Seven days after skin sensitization, the mice were fasted overnight, anesthetized with isoflurane inhalation, and a 1 mL syringe equipped with a 3.5-F catheter, filled with oxazolone solution, was inserted carefully about 4 cm into the colon of the mouse. Following insertion, 50 μL of the oxazolone solution (1%, 1:1 ethanol:water formulation) was injected very slowly (over 30 sec using an injection pump) into the colon. The catheter was removed and the mice were held vertically (head down) for 2 min to ensure that the entire oxazolone solution remained inside the colon. Drug treatment (PO, BID or TID) or vehicle was initiated a day prior to the oxazolone intrarectal (IR) challenge. Two-day post oxazolone intrarectal challenge, the Disease Activity Index (DAI) was assessed by treatment-blinded experimenters for each mouse according to the criteria score: stool consistency score (0, normal; 2, loose; 4, diarrhea), gross bleeding score (0, absence; 2, blood tinged; 4, presence), and weight loss score (0, none; 1, 1%-5%; 2, 5%-10%; 3, 10%-20%; 4, more than 20%); DAI=average of (stool consistency score+gross bleeding score+weight loss score).
Selected compounds of the invention were tested in the assay. Efficacy in the model is evidenced by a decrease in DAI score as compared with the score from vehicle treated animals.

[3] = system: IL-4 induced STAT6 phosphorylation in THP-1 human monocytic cells; assay: Cellular JAK potency assay, THP-1
[4] = system: IL-13 induced STAT6 phosphorylation in BEAS-2B human lung epithelial cells; assay: AlphaScreen cellular JAK potency assay, BEAS-2B
[5] = target: JAK2 (Homo sapiens (Human), UniProt O60674); assay: LanthaScreen JAK biochemical assay (JAK2)
[6] = target: JAK3 (Homo sapiens (Human), UniProt P52333); assay: LanthaScreen JAK biochemical assay (JAK3)
[7] = target: Tyk2 (Homo sapiens (Human), UniProt P29597); assay: LanthaScreen JAK biochemical assay (Tyk2)
[8] = read-out: JAK 1 (pKi) (converted)
[9] = Homo sapiens, THP-1, read-out: THP-1 IL4 pIC50 (converted)
[10] = Homo sapiens, BEAS-2B, read-out: BEAS2B pIC50 (converted)
[11] = IL-4 induced STAT6 phosphorylation, THP-1 cells
[12] = IL-13 induced STAT6 phosphorylation, BEAS-2B cells
[13] = read-out: JAK 2 (pKi) (converted)
[14] = THP-1 cells, IL-4 induced STAT6 phosphorylation
[15] = BEAS-2B cells, IL-13 induced STAT6 phosphorylation

Sequence of JAK1 (P23458 whole entry): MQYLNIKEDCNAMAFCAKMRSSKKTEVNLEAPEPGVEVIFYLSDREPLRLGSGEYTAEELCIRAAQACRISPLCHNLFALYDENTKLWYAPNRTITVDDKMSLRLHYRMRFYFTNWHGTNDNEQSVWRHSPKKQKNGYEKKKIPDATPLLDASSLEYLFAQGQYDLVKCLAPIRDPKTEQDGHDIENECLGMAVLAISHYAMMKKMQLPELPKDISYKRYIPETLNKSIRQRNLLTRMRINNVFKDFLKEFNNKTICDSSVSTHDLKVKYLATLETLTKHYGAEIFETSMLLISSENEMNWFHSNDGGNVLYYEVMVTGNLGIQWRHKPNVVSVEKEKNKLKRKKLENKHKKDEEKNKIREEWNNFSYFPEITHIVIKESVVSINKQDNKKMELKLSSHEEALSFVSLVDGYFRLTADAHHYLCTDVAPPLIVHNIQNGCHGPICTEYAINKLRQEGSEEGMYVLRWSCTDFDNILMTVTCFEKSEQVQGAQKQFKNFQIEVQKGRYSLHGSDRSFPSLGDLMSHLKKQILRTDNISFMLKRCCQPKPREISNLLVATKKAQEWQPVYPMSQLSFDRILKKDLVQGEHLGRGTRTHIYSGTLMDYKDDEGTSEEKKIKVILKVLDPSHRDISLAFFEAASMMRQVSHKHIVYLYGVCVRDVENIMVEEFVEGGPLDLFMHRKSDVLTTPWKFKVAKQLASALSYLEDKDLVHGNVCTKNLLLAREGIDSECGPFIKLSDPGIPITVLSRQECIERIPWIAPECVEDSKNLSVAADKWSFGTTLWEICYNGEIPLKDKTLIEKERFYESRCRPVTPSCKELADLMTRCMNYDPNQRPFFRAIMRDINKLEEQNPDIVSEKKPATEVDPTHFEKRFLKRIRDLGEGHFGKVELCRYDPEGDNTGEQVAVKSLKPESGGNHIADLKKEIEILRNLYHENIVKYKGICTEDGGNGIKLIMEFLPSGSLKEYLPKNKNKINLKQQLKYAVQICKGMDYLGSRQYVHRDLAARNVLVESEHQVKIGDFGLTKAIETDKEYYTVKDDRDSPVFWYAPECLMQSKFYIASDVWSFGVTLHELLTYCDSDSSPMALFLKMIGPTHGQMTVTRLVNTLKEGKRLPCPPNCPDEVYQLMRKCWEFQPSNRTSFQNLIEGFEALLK
Sequence of JAK2 (O60674 whole entry): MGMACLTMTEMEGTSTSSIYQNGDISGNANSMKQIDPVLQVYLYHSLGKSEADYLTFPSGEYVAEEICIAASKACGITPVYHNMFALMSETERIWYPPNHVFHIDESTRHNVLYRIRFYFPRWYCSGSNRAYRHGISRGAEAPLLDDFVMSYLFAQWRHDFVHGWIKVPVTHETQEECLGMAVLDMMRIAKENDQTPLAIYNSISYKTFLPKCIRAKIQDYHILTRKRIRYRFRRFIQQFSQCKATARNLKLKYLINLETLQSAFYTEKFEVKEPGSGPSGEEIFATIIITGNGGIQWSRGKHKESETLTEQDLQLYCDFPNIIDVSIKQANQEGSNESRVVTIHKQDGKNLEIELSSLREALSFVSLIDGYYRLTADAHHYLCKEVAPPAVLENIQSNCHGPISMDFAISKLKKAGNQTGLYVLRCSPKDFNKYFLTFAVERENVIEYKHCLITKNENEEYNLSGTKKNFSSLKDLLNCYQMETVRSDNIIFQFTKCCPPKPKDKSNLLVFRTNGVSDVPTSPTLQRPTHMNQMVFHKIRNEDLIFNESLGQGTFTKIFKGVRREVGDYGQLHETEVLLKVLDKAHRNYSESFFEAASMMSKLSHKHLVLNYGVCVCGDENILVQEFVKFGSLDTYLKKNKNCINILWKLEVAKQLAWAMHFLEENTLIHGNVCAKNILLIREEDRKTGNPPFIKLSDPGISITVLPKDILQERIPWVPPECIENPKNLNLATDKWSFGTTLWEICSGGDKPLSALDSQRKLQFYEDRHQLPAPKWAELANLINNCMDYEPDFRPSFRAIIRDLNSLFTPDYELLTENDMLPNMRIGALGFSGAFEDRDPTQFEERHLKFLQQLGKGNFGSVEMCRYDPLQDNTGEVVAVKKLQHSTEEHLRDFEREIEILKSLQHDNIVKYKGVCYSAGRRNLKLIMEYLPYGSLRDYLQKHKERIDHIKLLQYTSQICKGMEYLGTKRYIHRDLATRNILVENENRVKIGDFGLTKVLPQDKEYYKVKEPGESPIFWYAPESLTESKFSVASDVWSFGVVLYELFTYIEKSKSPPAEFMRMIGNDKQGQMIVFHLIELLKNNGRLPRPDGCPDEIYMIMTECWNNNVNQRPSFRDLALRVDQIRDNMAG
Sequence of Tyk2 (P29597 whole entry): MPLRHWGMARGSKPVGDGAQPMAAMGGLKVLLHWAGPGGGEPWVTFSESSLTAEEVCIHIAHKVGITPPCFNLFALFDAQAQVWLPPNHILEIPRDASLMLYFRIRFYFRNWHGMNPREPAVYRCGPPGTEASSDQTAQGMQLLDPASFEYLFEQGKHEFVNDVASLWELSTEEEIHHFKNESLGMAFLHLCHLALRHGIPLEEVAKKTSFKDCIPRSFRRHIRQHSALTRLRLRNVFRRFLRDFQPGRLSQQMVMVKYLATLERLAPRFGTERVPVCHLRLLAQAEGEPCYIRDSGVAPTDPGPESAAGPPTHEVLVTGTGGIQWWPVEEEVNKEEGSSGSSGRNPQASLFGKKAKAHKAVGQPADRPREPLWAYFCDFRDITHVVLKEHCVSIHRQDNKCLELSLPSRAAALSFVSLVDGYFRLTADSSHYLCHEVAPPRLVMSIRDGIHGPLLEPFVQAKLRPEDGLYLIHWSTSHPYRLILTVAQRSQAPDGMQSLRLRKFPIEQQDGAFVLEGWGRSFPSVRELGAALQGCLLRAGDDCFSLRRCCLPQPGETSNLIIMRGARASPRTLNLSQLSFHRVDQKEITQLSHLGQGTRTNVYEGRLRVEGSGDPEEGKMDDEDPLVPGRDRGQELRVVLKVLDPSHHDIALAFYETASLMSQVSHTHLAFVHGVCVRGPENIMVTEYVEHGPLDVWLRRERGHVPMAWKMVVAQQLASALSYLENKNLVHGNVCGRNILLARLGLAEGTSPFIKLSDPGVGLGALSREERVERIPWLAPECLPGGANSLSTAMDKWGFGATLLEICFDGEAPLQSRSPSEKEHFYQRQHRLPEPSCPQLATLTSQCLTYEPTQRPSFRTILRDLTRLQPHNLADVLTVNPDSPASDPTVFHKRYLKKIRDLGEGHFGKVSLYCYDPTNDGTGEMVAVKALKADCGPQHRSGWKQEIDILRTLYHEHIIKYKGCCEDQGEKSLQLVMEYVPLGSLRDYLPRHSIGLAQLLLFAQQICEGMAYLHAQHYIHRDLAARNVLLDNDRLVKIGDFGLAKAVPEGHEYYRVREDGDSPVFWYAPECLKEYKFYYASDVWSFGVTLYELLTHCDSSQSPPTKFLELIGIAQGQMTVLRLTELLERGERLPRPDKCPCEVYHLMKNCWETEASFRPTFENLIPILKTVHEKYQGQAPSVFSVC

CCC(=O)N1[C@@H]2CC[C@H]1C[C@H](Nc1nc(Nc3cc(C)[nH]n3)cc3ncccc13)C2 [Example 2-1]
Ki [1, 8]: 0.1 to 1 nM | decrease in DAI score as compared with vehicle treated animals [2]: did not exhibit a statistically significant decrease | IC50 [3, 9]: 31.6 to 200 nM | IC50 [4, 10]: 31.6 to 200 nM

Cc1cc(Nc2cc3ncccc3c(N[C@@H]3C[C@H]4CCC[C@@H](C3)N4C(=O)Cc3ccccc3)n2)n[nH]1 [Example 2-24]
JAK 1 (pKi) [1]: B (B represents a pKi value between 9 and 10 (Ki between 1 nM and 0.1 nM)) | JAK 2 (pKi) [5]: B (B represents a pKi value between 9 and 10 (Ki between 1 nM and 0.1 nM)) | decrease in DAI score as compared with vehicle treated animals [2]: did not exhibit a statistically significant decrease | THP-1 IL4 pIC50 [3, 11]: A (A represents a pEC50 value≥7.5 (EC50≤32 nM)) | BEAS2B pIC50 [4, 12]: A (A represents a pEC50 value≥7.5 (EC50≤32 nM))

Cc1cc(Nc2cc3ncccc3c(N[C@@H]3C[C@H]4CC[C@@H](C3)N4S(=O)(=O)c3cccnc3)n2)n[nH]1 [Example 3, N^7-(5-methyl-1H-pyrazol-3-yl)-N^5-((1R,3s,5S)-8-(pyridin-3-ylsulfonyl)-8-azabicyclo[3.2.1]octan-3-yl)-1,6-naphthyridine-5,7-diamine]
Ki [1, 8]: 0.1 to 1 nM | Ki [5, 13]: 0.1 to 1 nM | decrease in DAI score as compared with vehicle treated animals [2]: statistically significant decrease | IC50 [3, 9]: 31.6 to 200 nM | IC50 [4, 10]: < 31.6 nM

Cc1cc(Nc2cc3ncccc3c(N[C@@H]3C[C@H]4CCC[C@@H](C3)N4C(=O)CN(C)C)n2)n[nH]1 [Example 4, 2-(Dimethylamino)-1-((1R,3s,5S)-3-((7-((5-methyl-1H-pyrazol-3-yl)amino)-1,6-naphthyridin-5-yl)amino)-9-azabicyclo[3.3.1]nonan-9-yl)ethan-1-one]
Ki [1]: 0.1 to 1 nM | Ki [5, 13]: 0.1 to 1 nM | decrease in DAI score as compared with vehicle treated animals [2]: statistically significant decrease | IC50 [3, 9]: 31.6 to 200 nM

Cc1cc(Nc2cc3ncccc3c(N[C@@H]3C[C@H]4CC[C@@H](C3)N4S(=O)(=O)C3CC3)n2)n[nH]1 [Example 4-4]
Ki [1, 8]: 0.1 to 1 nM | Ki [5]: 0.1 to 1 nM | decrease in DAI score as compared with vehicle treated animals [2]: did not exhibit a statistically significant decrease | IC50 [3, 9]: < 31.6 nM | IC50 [4, 10]: < 31.6 nM

Cc1cc(Nc2cc3ncccc3c(N[C@@H]3C[C@H]4CC[C@@H](C3)N4S(=O)(=O)Cc3ccccc3)n2)n[nH]1 [Example 4-13]
JAK 1 (pKi) [1]: B (B represents a pKi value between 9 and 10 (Ki between 1 nM and 0.1 nM)) | decrease in DAI score as compared with vehicle treated animals [2]: did not exhibit a statistically significant decrease | THP-1 IL4 pIC50 [3, 11]: B (B represents a pEC50 value between 6.7 and 7.5 (EC50 between 200 nM and 32 nM)) | BEAS2B pIC50 [4, 12]: A (A represents a pEC50 value≥7.5 (EC50≤32 nM))

Cc1cc(Nc2cc3ncccc3c(N[C@@H]3C[C@H]4CCC[C@@H](C3)N4S(=O)(=O)C3CC3)n2)n[nH]1 [Example 4-18]
JAK 1 (pKi) [1]: A (A represents a pKi value≥10 (Ki≤0.1 nM)) | decrease in DAI score as compared with vehicle treated animals [2]: did not exhibit a statistically significant decrease | THP-1 IL4 pIC50 [3, 11]: A (A represents a pEC50 value≥7.5 (EC50≤32 nM)) | BEAS2B pIC50 [4, 12]: A (A represents a pEC50 value≥7.5 (EC50≤32 nM))

Cc1cc(Nc2cc3ncccc3c(N[C@@H]3C[C@H]4CCC[C@@H](C3)N4S(=O)(=O)CC3CC3)n2)n[nH]1 [Example 4-23]
decrease in DAI score as compared with vehicle treated animals [2]: did not exhibit a statistically significant decrease | THP-1 IL4 pIC50 [3, 11]: A (A represents a pEC50 value≥7.5 (EC50≤32 nM)) | BEAS2B pIC50 [4, 12]: A (A represents a pEC50 value≥7.5 (EC50≤32 nM))

Cc1cc(Nc2cc3nc(CO)ccc3c(N[C@@H]3C[C@H]4CC[C@@H](C3)N4CCC#N)n2)n[nH]1 [Example 5-11]
JAK 2 (pKi) [5]: A (A represents a pKi value≥10 (Ki≤0.1 nM)) | decrease in DAI score as compared with vehicle treated animals [2]: did not exhibit a statistically significant decrease | THP-1 IL4 pIC50 [3, 11]: A (A represents a pEC50 value≥7.5 (EC50≤32 nM)) | BEAS2B pIC50 [4, 12]: B (B represents a pEC50 value between 6.7 and 7.5 (EC50 between 200 nM and 32 nM))

COCCS(=O)(=O)N1[C@@H]2CC[C@H]1C[C@H](Nc1nc(Nc3cc(C)[nH]n3)cc3ncccc13)C2 [Example 6, N^5-((1R,3s,5S)-8-((2-methoxyethyl)sulfonyl)-8-azabicyclo[3.2.1]octan-3-yl)-N^7-(5-methyl-1H-pyrazol-3-yl)-1,6-naphthyridine-5,7-diamine]
decrease in DAI score as compared with vehicle treated animals [2]: statistically significant decrease

COC(=O)c1cnc2cc(Nc3cc(C)[nH]n3)nc(N[C@@H]3C[C@H]4CCC[C@@H](C3)N4CCC#N)c2c1 [Example 6-47]
JAK 1 (pKi) [1]: A (A represents a pKi value≥10 (Ki≤0.1 nM)) | JAK 2 (pKi) [5]: A (A represents a pKi value≥10 (Ki≤0.1 nM)) | JAK 3 (pKi) [6]: B (B represents a pKi value between 9 and 10 (Ki between 1 nM and 0.1 nM)) | Tyk 2 (pKi) [7]: B (B represents a pKi value between 9 and 10 (Ki between 1 nM and 0.1 nM)) | THP-1 IL4 pIC50 [3, 14]: A (A represents a pEC50 value≥7.5 (EC50≤32 nM)) | BEAS2B pIC50 [4, 15]: A (A represents a pEC50 value≥7.5 (EC50≤32 nM))

Cc1cc(Nc2nc(N[C@@H]3C[C@H]4CCC[C@@H](C3)N4S(=O)(=O)c3ccccc3)c3cccnc3c2F)n[nH]1 [Example 8-11]
JAK 1 (pKi) [1]: B (B represents a pKi value between 9 and 10 (Ki between 1 nM and 0.1 nM)) | JAK 2 (pKi) [5]: B (B represents a pKi value between 9 and 10 (Ki between 1 nM and 0.1 nM)) | JAK 3 (pKi) [6]: C (C represents a pKi value between 7 and 9 (Ki between 100 nM and 1 nM)) | Tyk 2 (pKi) [7]: C (C represents a pKi value between 7 and 9 (Ki between 100 nM and 1 nM)) | THP-1 IL4 pIC50 [3, 14]: B (B represents a pEC50 value between 6.7 and 7.5 (EC50 between 200 nM and 32 nM)) | BEAS2B pIC50 [4, 15]: A (A represents a pEC50 value≥7.5 (EC50≤32 nM))

Cc1cc(Nc2cc3ncccc3c(N[C@@H]3C[C@H]4CCC[C@@H](C3)N4S(=O)(=O)N3CC(C#N)C3)n2)n[nH]1 [Example 11, 1-(((1R,3s,5S)-3-((7-((5-methyl-1H-pyrazol-3-yl)amino)-1,6-naphthyridin-5-yl)amino)-9-azabicyclo[3.3.1]nonan-9-yl)sulfonyl)azetidine-3-carbonitrile]
decrease in DAI score as compared with vehicle treated animals [2]: did not exhibit a statistically significant decrease | IC50 [3, 9]: 31.6 to 200 nM | IC50 [4, 10]: < 31.6 nM

Cc1cc(Nc2cc3ncccc3c(N[C@@H]3C[C@H]4CC[C@@H](C3)N4S(=O)(=O)N3CC(C#N)C3)n2)n[nH]1 [Example 13, 1-(((1R,3s,5S)-3-((7-((5-methyl-1H-pyrazol-3-yl)amino)-1,6-naphthyridin-5-yl)amino)-8-azabicyclo[3.2.1]octan-8-yl)sulfonyl)azetidine-3-carbonitrile]
Ki ([7]; read-out: Tyk 2 (pKi) (converted)): 0.1 to 1 nM | decrease in DAI score as compared with vehicle treated animals [2]: did not exhibit a statistically significant decrease | IC50 [3, 9]: 31.6 to 200 nM | IC50 [4, 10]: 31.6 to 200 nM
